This experiment concerns the target SIK2 (Homo sapiens (Human), UniProt Q9H0K1). Description: SIK2 Enzymatic Assay Version 2 (High ATP). The format is biochemical. The following applies: 3 mM ATP and 200 μM HDAC5tide final, ADP-Glo Max luminescence. The procedure, abridged:
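Run at room temperature; SIK2 enzyme at 6 nM (2× final) preincubated with compound 30 min before reaction. ADP formation detected by ADP-Glo Max (2 h reagent, 1 h detection) with luminescence read-out.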

Sequence of SIK2 (Q9H0K1 whole entry, species assumed): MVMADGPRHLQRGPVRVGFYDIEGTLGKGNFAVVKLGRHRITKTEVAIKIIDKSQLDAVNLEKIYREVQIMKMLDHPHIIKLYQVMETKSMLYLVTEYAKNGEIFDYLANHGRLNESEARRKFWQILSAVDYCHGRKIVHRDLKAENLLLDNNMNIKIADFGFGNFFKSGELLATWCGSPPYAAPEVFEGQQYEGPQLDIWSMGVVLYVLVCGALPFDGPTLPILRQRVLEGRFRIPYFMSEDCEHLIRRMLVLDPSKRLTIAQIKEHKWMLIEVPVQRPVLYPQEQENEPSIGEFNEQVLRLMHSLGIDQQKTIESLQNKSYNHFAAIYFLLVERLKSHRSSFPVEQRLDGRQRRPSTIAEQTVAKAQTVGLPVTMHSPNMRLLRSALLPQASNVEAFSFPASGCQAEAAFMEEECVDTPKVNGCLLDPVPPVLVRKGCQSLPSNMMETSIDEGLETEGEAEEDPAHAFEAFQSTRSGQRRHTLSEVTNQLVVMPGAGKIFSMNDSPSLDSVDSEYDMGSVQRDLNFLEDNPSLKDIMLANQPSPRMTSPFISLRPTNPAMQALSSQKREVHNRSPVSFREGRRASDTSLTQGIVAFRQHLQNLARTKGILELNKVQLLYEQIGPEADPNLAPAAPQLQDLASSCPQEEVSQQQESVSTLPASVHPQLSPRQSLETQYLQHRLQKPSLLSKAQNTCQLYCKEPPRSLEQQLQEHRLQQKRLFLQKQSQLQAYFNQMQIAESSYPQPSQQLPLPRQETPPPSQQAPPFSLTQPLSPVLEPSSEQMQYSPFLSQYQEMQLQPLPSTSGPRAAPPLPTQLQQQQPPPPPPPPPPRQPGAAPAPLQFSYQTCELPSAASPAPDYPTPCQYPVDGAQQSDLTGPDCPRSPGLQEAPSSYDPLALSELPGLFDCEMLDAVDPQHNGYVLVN

Molecule `Cc1cc(Nc2cc3cc(-c4c(OC[C@H]5CCN5C)cnn4C)ccn3n2)nc(-c2cccnc2)n1` [Example 116, 5-[2-methyl-4-[[(2R)-1-methylazetidin-2-yl]methoxy]pyrazol-3-yl]-N-[6-methyl-2-(3-pyridyl)pyrimidin-4-yl]pyrazolo[1,5-a]pyridin-2-amine] showed an IC50 below 0.847 nM. For the molecule `CC(=O)CN1CC[C@@H]1COc1cnn(C)c1-c1ccn2nc(NC(=O)C3CC3)cc2c1` [Example 251, N-[5-[4-[[(2R)-1-acetonylazetidin-2-yl]methoxy]-2-methyl-pyrazol-3-yl]pyrazolo[1,5-a]pyridin-2-yl]cyclopropanecarboxamide], the IC50 came to 45.6 nM. `CCN1CC[C@@H]1COc1cnn(C)c1-c1ccn2nc(Nc3cnc(OC(F)F)cn3)cc2c1` [Example 181, N-[5-(difluoromethoxy)pyrazin-2-yl]-5-[4-[[(2R)-1-ethylazetidin-2-yl]methoxy]-2-methyl-pyrazol-3-yl]pyrazolo[1,5-a]pyridin-2-amine] had an IC50 of 2.2 nM.

`COC1CNC[C@@H]1Oc1noc(C)c1-c1ccn2nc(NC(=O)C3CC3)cc2c1` (mixture of isomers) [Example 200, (rac-cis)-N-[5-[3-(4-methoxypyrrolidin-3-yl)oxy-5-methyl-isoxazol-4-yl]pyrazolo[1,5-a]pyridin-2-yl]cyclopropanecarboxamide] came in with a 50% inhibitory concentration (IC50) of 29.4 nM.

`Cc1cc(Nc2cc3cc(-c4c(OC[C@@H](O)C56CC(C5)C6)cnn4C)ccn3n2)nc(C)n1` (stereo in doubt) [Example 306, (*S)-1-(3-bicyclo[1.1.1]pentanyl)-2-[5-[2-[(2,6-dimethylpyrimidin-4-yl)amino]pyrazolo[1,5-a]pyridin-5-yl]-1-methyl-pyrazol-4-yl]oxy-ethanol] yielded a half-inhibitory concentration (IC50) of 36.1 nM.

In turn, `CN1CC(C)(C)[C@H]1COc1cnn(C)c1-c1ccn2nc(NC(=O)C3CC3)cc2c1` [Example 3, N-[5-[2-methyl-4-[[(2S)-1,3,3-trimethylazetidin-2-yl]methoxy]pyrazol-3-yl]pyrazolo[1,5-a]pyridin-2-yl]cyclopropanecarboxamide] registered an IC50 of 8.5 nM. As to `Cc1cc(Nc2cc3cc(-c4c(O[C@H]5C[C@@H]6CC[C@H]5O6)cnn4C)ccn3n2)nc(C)n1` (single isomer, unassigned) [Example 441, (1*R, 2*S, 4*S)—N-(2,6-dimethylpyrimidin-4-yl)-5-[2-methyl-4-(7-oxabicyclo[2.2.1]heptan-3-yloxy)pyrazol-3-yl]pyrazolo[1,5-a]pyridin-2-amine], the IC50 is 72.9 nM.

Turning to `Cn1ncc(O[C@H]2C[C@H]3COC[C@@H](C2)N3)c1-c1ccn2nc(NC(=O)C3CC3)cc2c1` [Example 313, N-[5-[2-methyl-4-[[(1R,5S)-3-oxa-9-azabicyclo[3.3.1]nonan-7-yl]oxy]pyrazol-3-yl]pyrazolo[1,5-a]pyridin-2-yl]cyclopropanecarboxamide], it took 29.6 nM to reach half-maximal inhibition (IC50).

As to `C[C@@H](O)CN1CC[C@@H]1COc1cnn(C)c1-c1ccn2nc(NC(=O)C3CC3)cc2c1` [Example 252, N-[5-[4-[[(2R)-1-[(2R)-2-hydroxypropyl]azetidin-2-yl]methoxy]-2-methyl-pyrazol-3-yl]pyrazolo[1,5-a]pyridin-2-yl]cyclopropanecarboxamide], the IC50 amounted to 9.4 nM. Molecule `CN1CC[C@@H]1COc1cnn(C)c1-c1ccn2nc(Nc3ccc(C4CC4)nn3)cc2c1` [Example 50, N-(6-cyclopropylpyridazin-3-yl)-5-[2-methyl-4-[[(2R)-1-methylazetidin-2-yl]methoxy]pyrazol-3-yl]pyrazolo[1,5-a]pyridin-2-amine] displayed an IC50 of 2.6 nM.

In turn, `Cc1onc(OC[C@H]2CCCN2C)c1-c1ccn2nc(NC(=O)C3CC3)cc2c1` [Example 388, N-[5-[5-methyl-3-[[(2R)-1-methylpyrrolidin-2-yl]methoxy]isoxazol-4-yl]pyrazolo[1,5-a]pyridin-2-yl]cyclopropanecarboxamide] yielded an IC50 of 146 nM.

`Cc1cc(Nc2cc3cc(-c4c(OC[C@H]5CCN5C)cnn4C)ccn3n2)nn(C)c1=O` [Example 152, 2,4-dimethyl-6-[[5-[2-methyl-4-[[(2R)-1-methylazetidin-2-yl]methoxy]pyrazol-3-yl]pyrazolo[1,5-a]pyridin-2-yl]amino]pyridazin-3-one] came in with an IC50 below 0.847 nM. The molecule `CCN1CCC[C@H]1COc1cnn(C)c1-c1ccn2nc(NC(=O)C3CC3)cc2c1` [Example 420, N-[5-[4-[[(2S)-1-ethylpyrrolidin-2-yl]methoxy]-2-methyl-pyrazol-3-yl]pyrazolo[1,5-a]pyridin-2-yl]cyclopropanecarboxamide] displayed an IC50 of 171 nM. On to `Cn1ncc(OC[C@@H](N)C(C)(C)C)c1-c1ccn2nc(NC(=O)C3CC3)cc2c1` [Example 348, N-[5-[4-[(2S)-2-amino-3,3-dimethyl-butoxy]-2-methyl-pyrazol-3-yl]pyrazolo[1,5-a]pyridin-2-yl]cyclopropanecarboxamide], for which the IC50 turned out to be 55.3 nM. For `CN1CCC1(C)COc1cnn(C)c1-c1ccn2nc(NC(=O)C3CC3)cc2c1` (racemic) [Example 54, (rac)-N-[5-[4-[(1,2-dimethylazetidin-2-yl)methoxy]-2-methyl-pyrazol-3-yl]pyrazolo[1,5-a]pyridin-2-yl]cyclopropanecarboxamide] the value was 178 nM; for `COc1cnc(Nc2cc3cc(-c4c(OC[C@H]5CCN5C)cnn4C)ccn3n2)cn1` [Example 154, N-(5-methoxypyrazin-2-yl)-5-[2-methyl-4-[[(2R)-1-methylazetidin-2-yl]methoxy]pyrazol-3-yl]pyrazolo[1,5-a]pyridin-2-amine], 7.9 nM; for `CCN1CC[C@@H]1COc1cnn(C(F)F)c1-c1ccn2nc(Nc3cncc(C)n3)cc2c1` [Example 482, 5-[2-(difluoromethyl)-4-[[(2R)-1-ethylazetidin-2-yl]methoxy]pyrazol-3-yl]-N-(6-methylpyrazin-2-yl)pyrazolo[1,5-a]pyridin-2-amine], 1.8 nM. On to `CCC1(COc2cnn(C)c2-c2ccn3nc(NC(=O)C4CC4)cc3c2)CN(C)C1` [Example 408, N-[5-[4-[(3-ethyl-1-methyl-azetidin-3-yl)methoxy]-2-methyl-pyrazol-3-yl]pyrazolo[1,5-a]pyridin-2-yl]cyclopropanecarboxamide], for which the IC50 was 79.5 nM. The value for `CN1CC[C@H](Oc2cnn(C)c2-c2ccn3nc(Nc4cc(C(F)(F)F)ncn4)cc3c2)C1` [Example 459, 5-[2-methyl-4-[(3S)-1-methylpyrrolidin-3-yl]oxy-pyrazol-3-yl]-N-[6-(trifluoromethyl)pyrimidin-4-yl]pyrazolo[1,5-a]pyridin-2-amine] was 145 nM. In turn, `COC1(COc2cnn(C(F)F)c2-c2ccn3nc(Nc4cc(C)nc(C)n4)cc3c2)CCNC1` (racemic) [Example 100, (RS)-5-[2-(difluoromethyl)-4-[(3-methoxypyrrolidin-3-yl)methoxy]pyrazol-3-yl]-N-(2,6-dimethylpyrimidin-4-yl)pyrazolo[1,5-a]pyridin-2-amine] displayed a half-maximal inhibitory concentration (IC50) of 12.4 nM. For `Cc1cc(Nc2cc3cc(-c4c(OC[C@]5(C)CCOC5)cnn4C)ccn3n2)nc(C)n1` (single isomer, unassigned) [Example 440, (*S)—N-(2,6-dimethylpyrimidin-4-yl)-5-[2-methyl-4-[(3-methyltetrahydrofuran-3-yl)methoxy]pyrazol-3-yl]pyrazolo[1,5-a]pyridin-2-amine] the value was 70.1 nM.

The values above are taken from patent US20240174662A1, “SMALL MOLECULE INHIBITORS OF SALT INDUCIBLE KINASES” (Janssen Biotech, Inc., priority 2021, published 2024).
